Source: US12421211B2, “Heterocyclic compounds” (Hoffmann-La Roche Inc., priority 2021, dated 2025)
Where a name gives a salt, the structure may show the parent alone. Read-outs that look alike come from different tables or passages of the source.

Tested on: Acinetobacter baumannii ATCC17961
Test: Antimicrobial susceptibility testing: 90% growth inhibitory concentration (IC90) determination
Type: cell-based
Details: read-out: ATCC 17961 IC90
Summary of the method: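 Growth inhibition derived in log phase from OD600 kinetics (every 20 minutes, 16h, 35±2° C) of ATCC17961 in Iso-Sensitest medium, inoculum ~5×10^5 CFU/ml. Compounds tested as twofold series, 10 points (e.g. 50 to 0.097 μM final); IC90 and IC50 reported.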

[1] = Acinetobacter baumannii, ATCC17961, 16 h
[2] = Acinetobacter baumannii, ATCC17961, 16 h, 90% growth inhibitory concentration, Acinetobacter baumannii ATCC17961, Iso-Sensitest broth, OD 600 nm over 16 h

SMILES | IC90 [2] | further results
COc1ccc(NC(=O)Cn2cc(-c3ccc(-c4cnc(C(=O)Nc5ccc(C(=O)N6CCN(C(=O)C7CC[N+](C)(C)CC7)CC6)c(Cl)c5)n4C)c(F)c3F)c(C)n2)nn1 [Example L4, N-[3-chloro-4-[4-(1,1-dimethylpiperidin-1-ium-4-carbonyl)piperazine-1-carbonyl]phenyl]-5-[2,3-difluoro-4-[1-[2-[(6-methoxypyridazin-3-yl)amino]-2-oxo-ethyl]-3-methyl-pyrazol-4-yl]phenyl]-1-methyl-imidazole-2-carboxamide; formate] |  | IC90 [1]: 106 nM
COCCn1ncc(-c2ccc(-c3cnc(C(=O)Nc4ccc(C(=O)N5CCN(C(=O)CN(C)C)CC5)c(Cl)c4)n3C)c(F)c2F)c1C [Example D32, N-[3-chloro-4-[4-[2-(dimethylamino)acetyl]piperazine-1-carbonyl]phenyl]-5-[2,3-difluoro-4-[1-(2-methoxyethyl)-5-methyl-pyrazol-4-yl]phenyl]-1-methyl-imidazole-2-carboxamide; 2,2,2-trifluoroacetic acid] | 52 nM | 
COCCn1cc(-c2ccc(-c3cnc(C(=O)Nc4ccc(C(=O)N5CCN(C(=O)[C@H]6C[C@@H](O)C[N+]6(C)C)CC5)c(Cl)c4)n3C)c(F)c2F)c(C)n1 [Example D9, N-[3-chloro-4-[4-[(2R,4R)-4-hydroxy-1,1-dimethyl-pyrrolidin-1-ium-2-carbonyl]piperazine-1-carbonyl]phenyl]-5-[2,3-difluoro-4-[1-(2-methoxyethyl)-3-methyl-pyrazol-4-yl]phenyl]-1-methyl-imidazole-2-carboxamide; formate] | 300 nM | 
Cc1nn(Cc2c[nH]nn2)cc1-c1ccc(-c2cnc(C(=O)Nc3ccc(C(=O)N4CCN(C(=O)C5CC[N+](C)(C)CC5)CC4)c(Cl)c3)n2C)c(F)c1F [Example F56, N-[3-chloro-4-[4-(1,1-dimethylpiperidin-1-ium-4-carbonyl)piperazine-1-carbonyl]phenyl]-5-[2,3-difluoro-4-[3-methyl-1-(1H-triazol-4-ylmethyl)pyrazol-4-yl]phenyl]-1-methyl-imidazole-2-carboxamide; formate] | 330 nM | 
CC(CO)Cn1cc(-c2ccc(-c3cnc(C(=O)Nc4ccc(C(=O)N5CCN(C(=O)C6CC[N+](C)(C)CC6)CC5)c(Cl)c4)n3C)c(F)c2F)c(C(F)(F)F)n1 (stereo not shown) [Example F7, N-[3-chloro-4-[4-(1,1-dimethylpiperidin-1-ium-4-carbonyl)piperazine-1-carbonyl]phenyl]-5-[2,3-difluoro-4-[1-(3-hydroxy-2-methyl-propyl)-3-(trifluoro-methyl)pyrazol-4-yl]phenyl]-1-methyl-imidazole-2-carboxamide; formate] | 520 nM | 
COCCn1ncc(-c2ccc(-c3cnc(C(=O)Nc4ccc(C(=O)N5CCN(C(=O)C6CC[N+](CC(=O)O)(CC7CNC7)CC6)CC5)c(Cl)c4)n3C)c(F)c2F)c1C (stereo not shown) [Example B29, 2-[1-(azetidin-3-ylmethyl)-4-[4-[2-chloro-4-[[5-[2,3-difluoro-4-[1-(2-methoxyethyl)-5-methyl-pyrazol-4-yl]phenyl]-1-methyl-imidazole-2-carbonyl]amino]benzoyl]piperazine-1-carbonyl]piperidin-1-ium-1-yl]acetic acid; formic acid; formate] |  | IC90 (90% growth inhibitory concentration, Acinetobacter baumannii ATCC17961, Iso-Sensitest broth, OD 600 nm over 16 h, formic acid, formate): 340 nM
COCCn1ncc(-c2ccc(-c3cnc(C(=O)Nc4ccc(C(=O)N5CCN(C(=O)C[N+]6(C)CCC(O)C6)CC5)c(Cl)c4)n3C)c(F)c2F)c1C (stereo not shown) [Example C1, N-[3-chloro-4-[4-[2-(3-hydroxy-1-methyl-pyrrolidin-1-ium-1-yl)acetyl]piperazine-1-carbonyl]phenyl]-5-[2,3-difluoro-4-[1-(2-methoxyethyl)-5-methyl-pyrazol-4-yl]phenyl]-1-methyl-imidazole-2-carboxamide; formate] |  | IC90 [1]: 45 nM
